The values below come from paper PMC4519324, “Substrate Specificity, Inhibitor Selectivity and Structure-Function Relationships of Aldo-Keto Reductase 1B15: A Novel Human Retinaldehyde Reductase” (PLoS ONE, 2015).

Read-outs that look alike come from different tables or passages of the source.

The target of data set [1] is T1, AKR1B15 (Homo sapiens, UniProt C9JRZ8).
T1 construct: made in house; host or cells: E. coli BL21(DE3), with or without chaperone plasmids pBB540/pBB542
Put plainly: Inhibition screening with D,L-glyceraldehyde as substrate. The class given is biochemical. The settings on record: 6 mM D,L-glyceraldehyde as substrate, 0.1% DMSO. As to the method: (§1) Activities were determined in 100 mM sodium phosphate, pH 7.0, at 25°C, using 0.2 mM NADPH in 0.2-cm path length cuvettes, with freshly prepared substrate solutions. One unit of activity is defined as the amount of enzyme required to transform 1 μmol of substrate per min at 25°C.
(§2) All compounds tested as inhibitors were dissolved in DMSO and assayed in a final concentration of 0.1% (v/v) DMSO using 6 mM D,L-glyceraldehyde as a substrate. Kinetic constant and IC50 (compound concentration that inhibits enzymatic activity by 50%) values were calculated by fitting the initial rates to the appropriate equation using Grafit 5.0 (Eritacus Software) and values were given as the mean ± standard error of three experiments. Standard error values were less than 20% of the mean values.

Data set [2] deals with T2, AKR1B10 (Homo sapiens, UniProt O60218).
T2 construct: made in house
T2 sequence (O60218 whole entry): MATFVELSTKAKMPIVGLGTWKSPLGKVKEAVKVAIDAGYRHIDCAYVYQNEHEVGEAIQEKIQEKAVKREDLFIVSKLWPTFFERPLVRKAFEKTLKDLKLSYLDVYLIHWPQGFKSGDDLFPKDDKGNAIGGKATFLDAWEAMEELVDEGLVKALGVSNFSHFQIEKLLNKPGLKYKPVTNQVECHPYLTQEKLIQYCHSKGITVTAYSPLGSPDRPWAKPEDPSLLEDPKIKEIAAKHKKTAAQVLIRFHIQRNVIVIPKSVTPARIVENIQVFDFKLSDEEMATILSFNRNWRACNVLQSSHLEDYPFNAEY
As to conditions: cited from earlier work.

Data set [3] deals with T3, AKR1B1 (Homo sapiens, UniProt P15121).
T3 construct: made in house
The settings on record: cited from earlier work.

Data set [4] addresses T3, AKR1B1. The settings on record: read-out: Km (μM) for cofactor NADPH; cited from earlier work.
Data set [5] addresses T1, AKR1B15. Put plainly: NADPH binding by quenching of Trp intrinsic fluorescence. As to conditions: 0.5 μM protein, 20 mM sodium phosphate, pH 7.0, 25°C, read-out: K D value for NADPH. As to the method: (§3) NADPH binding was analyzed by quenching of Trp intrinsic fluorescence of 0.5 μM protein, using a Cary Eclipse (Varian) fluorimeter, in 20 mM sodium phosphate, pH 7.0, at 25°C in a final volume of 1 mL. The excitation wavelength was 290 nm and the emission wavelength was monitored at 340 nm. AKR1B10 was used as a control. The dissociation constant (K D) values were calculated by nonlinear fitting of experimental data, using Grafit 5.0 (Eritacus Software), to the Morrison equation: ΔF=ΔFmax·[E]+[NADPH]+KD−([E]+[NADPH]+KD)^2−4·[E]·[NADPH]/2·[E]

For data set [6], the target named is T2, AKR1B10. Described as above. The settings on record: 0.5 μM protein, 20 mM sodium phosphate, pH 7.0, 25°C, read-out: K D value for NADPH. As to the method: as §3
Data set [7] concerns the target T1, AKR1B15. Put plainly: Spectrophotometric activity assay (NADPH decrease at 340 nm), substrate kinetics. In kind it is biochemical. The settings on record: 3 mM D,L-glyceraldehyde, read-out: Km (μM) for cofactor NADPH.
Data set [8] has as its target T2, AKR1B10. The data set is described as above. In kind it is biochemical. As to conditions: 60 mM D,L-glyceraldehyde, read-out: Km (μM) for cofactor NADPH.
For data set [9], the target named is T2, AKR1B10. Put plainly: Inhibition of enzymatic activity with D,L-glyceraldehyde as substrate. In kind it is biochemical. As to the method:
as §1, §2

In data set [10] the test system is CC(=O)CC(C)=O. Put plainly: Spectrophotometric activity assay (NADPH decrease at 340 nm), substrate kinetics. The class given is biochemical, human. The settings on record: other: AKR1B1, pH 7.0, 25.0 °C. As to the method:
as §1, §2

Data set [11] deals with CCC(=O)CC(=O)CC. Described as above. In kind it is biochemical, human. As to conditions: other: AKR1B1, pH 7.0, 25.0 °C. The method, then: as §1, §2
Data set [12] relates to CC(C)=CCC/C(C)=C/C=O. Described as above. The class given is biochemical, human. The settings on record: other: AKR1B1, pH 7.0, 25.0 °C. As to the method: as §1, §2

T1 sequence (C9JRZ8 whole entry): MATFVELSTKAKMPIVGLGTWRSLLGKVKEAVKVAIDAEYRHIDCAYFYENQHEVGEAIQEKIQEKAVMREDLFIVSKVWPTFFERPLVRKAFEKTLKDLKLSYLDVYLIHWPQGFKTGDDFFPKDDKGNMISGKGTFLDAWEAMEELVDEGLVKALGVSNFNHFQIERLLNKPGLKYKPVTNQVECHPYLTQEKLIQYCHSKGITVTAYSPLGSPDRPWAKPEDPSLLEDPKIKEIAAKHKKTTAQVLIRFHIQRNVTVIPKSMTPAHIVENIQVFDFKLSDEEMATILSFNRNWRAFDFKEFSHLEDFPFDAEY

Consider `Oc1c(F)c(F)c(-c2c(F)c(F)c(O)c(F)c2F)c(F)c1F` [JF0064, 2,2’,3,3’,5,5’,6,6’-octafluoro-4,4’-biphenyldiol], for which the concentration for half-maximal inhibition (IC50) (commonly the midpoint of a concentration-inhibition curve) in [1] is 0.034 ± 0.005 µM; in data set [2] (AKR1B10, values in Table 3) it was less than 10 µM; in [3] (AKR1B1, values in Table 3), less than 10 µM.

Take `C[C@H](CCC(=O)O)[C@H]1CC[C@H]2[C@@H]3CC[C@@H]4C[C@H](O)CC[C@]4(C)[C@H]3CC[C@]12C` [Lithocholic acid]: the half-maximal inhibitory concentration (IC50) in data set [1] was 16.3 ± 7.6 µM; in data set [2] (AKR1B10), 0.12 µM; in data set [3] (AKR1B1) it was 7.2 µM. Further, in data set [2] (in words), the “selectivity between AKR1B10 and AKR1B1” value was “more selective against AKR1B10”.

Regarding `NC(=O)C1=CN([C@@H]2O[C@H](COP(=O)(O)OP(=O)(O)OC[C@H]3O[C@@H](n4cnc5c(N)ncnc54)[C@H](OP(=O)(O)O)[C@@H]3O)[C@@H](O)[C@H]2O)C=CC1` [NADPH], the values for the Michaelis-Menten constant (Km) in data set [4], in data set [7] and in data set [8] were 2.9 µM, 5.7 µM and 10 µM, respectively. In addition, the Kd came out at 0.113 ± 0.009 µM in data set [5] and 0.092 ± 0.035 µM in [6].

Turning to `CC1=C(CC(=O)O)c2cc(F)ccc2/C1=C\c1ccc([S+](C)[O-])cc1` (stereo not drawn) [Sulindac], the IC50 in [1] was greater than 100 µM; in [2] (AKR1B10, values in Table 3) it was less than 10 µM; in data set [3] (AKR1B1, values in Table 3), less than 10 µM.

As for `COc1ccc2c(C(=S)N(C)CC(=O)O)cccc2c1C(F)(F)F` [Tolrestat], the half-inhibitory concentration (IC50) in [1] was greater than 100 µM; in data set [2] (AKR1B10, values in Table 3) it was less than 10 µM; in [9] it was 0.006 µM.

Regarding AKR1B1 (Homo sapiens), in [10], the Michaelis constant (Km) (usually the substrate concentration at which the rate is half of its maximum) is 8,100 μM; the turnover number (kcat) (as a rule, the number of substrate molecules converted per active site and unit of time at saturation) is 0.278 s⁻¹; the kcat/Km (usually the turnover number divided by the Michaelis constant) is 36.7 M⁻¹ s⁻¹. Further, in [11], the Michaelis constant (Km) is listed as 12,000 μM, the kcat was 0.433 s⁻¹ and the kcat/Km amounted to 36.7 M⁻¹ s⁻¹. Moreover, in data set [12], the Michaelis-Menten constant (Km) came out at 35 µM, the kcat came to 1.13 s⁻¹ and the catalytic efficiency (kcat/Km) stood at 29200 M⁻¹ s⁻¹.
